Measurements taken from US10787473B2, “PH responsive fluorescent compound, composition for detecting mitophagy using same, and method for detecting mitophagy within cells” (DOJINDO LABORATORIES, priority 2016, dated 2020).

Legend:
[1] = pH-dependent excitation and fluorescence spectra in buffer solution containing 50% acetonitrile; format: physicochemical
Experimental: To investigate a pH-dependent fluorescent emission of Compound 9, excitation spectra (“Excitation” in FIG. 1) and fluorescence spectra (“Fluorescence” in FIG. 1) were measured at pH 4.0 and 7.4 in buffer solution containing 50% acetonitrile.

[2] = Fluorescent intensity at various pH in buffer solution containing 50% DMSO; format: physicochemical
Experimental: The fluorescent intensities of Compound 9 at various pH were measured in buffer solution containing 50% DMSO. […] Such increase takes place at more acidic side than that of naphthyl imide-type pH-responsive fluorescent compound.

[3] = test system: HeLa cells; test: Mitophagy detection test using HeLa cells (starvation induction), fluorescent microscope; format: cell-based; conditions: 100 nmol/L, 30 min, 1 μM Lyso Dye
Experimental: HeLa cells were seeded on a μ-slide 8 well (Ibidi) and incubated in a CO2 incubator at 37° C. overnight. Compound 9 diluted with Hanks' HEPES buffer (100 nmol/L) was added and incubated for 30 minutes. A starvation induction was carried out by washing cultured cells with Hanks' HEPES buffer twice follow by adding plasma-free Krebs' buffer containing 1 μM glucagon and 7.5 μM pepstatin A and incubating at 37° C. for appropriate period. Then, the cultured cells were observed by a fluorescent microscope. To confirm the uptake of Compound 9 in lysosomes, 1 μM Lyso Dye diluted with Hanks' HEPES buffer was added to the cultured cells and incubated at 37° C. for 30 minutes.

[4] = test system: Parkin-expressed HeLa cells; test: Confocal laser microscopic detection of mitophagy, CCCP induction; format: cell-based; conditions: 100 nmol/L, 10 μM/L CCCP for 24 hours, 1 μM Lyso Dye
Excerpt: Methods for inducing mitophagy include, in addition to a bulk method such as described in Example 3 above, a selective method mediated with Parkin gene and PINK1 enzyme. The latter involves Parkinson disease and the relationship with a quality control of dysfunctional mitochondria (For example, see Derek Narendra, Atsushi Tanaka, Der-Fen Suen and Richard J. Youle, J. Cell Biol., 2008, 183, 795-803.). To examine the mitochondria-selective detection of autophagy, Parkin-expressed HeLa cells were prepared and the mitophagy was induced by adding Compound 9 and carbonyl cyanide m-chlorophenyl hydrazone (CCCP), a mitochondrial uncoupler and incubating.
HeLa cells were seeded on a μ-slide 8 well (Ibidi) and incubated in a CO2 incubator at 37° C. overnight. Parkin plasmid was introduced using HilyMax (DOJINDO LABORATORIES) into the cells and the cells were incubated overnight. The cultured cells were washed with a plasma-containing medium, to which Compound 9 diluted with Hanks' HEPES buffer (100 nmol/L) was added and incubated for 30 minutes. After washing with the plasma-containing medium, the cells were cultured in a cell culture medium containing 10 μM/L of CCCP for 24 hours. After the occurrence of mitophagy was monitored by the fluorescent microscope, the cultured cells were further incubated with 1 μM Lyso Dye at 37° C. for 30 minutes.

[5] = test system: Parkin-non-expressed HeLa cells; test: as above; format: cell-based; conditions: 100 nmol/L, 10 μM/L CCCP for 24 hours
[6] = test system: Parkin-expressed HeLa cells; test: Flow cytometry (FCM) analysis of mitophagy, CCCP induction; format: cell-based; conditions: 100 nmol/L, 10 μM/L CCCP for 24 hours
Experimental: HeLa cells were seeded on a 24 well plate and incubated in a CO2 incubator at 37° C. overnight. Parkin plasmid was introduced using HilyMax (DOJINDO LABORATORIES) into the cells and the cells were further incubated overnight. The cultured cells were washed with a plasma-containing medium, to which Compound 9 diluted with Hanks' HEPES buffer (100 nmol/L) was added and incubated for 30 minutes. After washing with the plasma-containing medium, the cells were cultured in a cell culture medium containing 10 μM/L of CCCP for 24 hours. After washing with PBS, the cells were peeled off by trypsin and EDTA. The cells were collected by centrifuge, dispersed in 0.5 mL of HBSS and analyzed by FCM (BD FACS cant II).

SMILES: O=C(CCN1C(=O)c2ccc3c4cccc5c(N6CCN(Cc7ccc(CCl)cc7)CC6)ccc(c6ccc(c2c36)C1=O)c54)NCC[P+](c1ccccc1)(c1ccccc1)c1ccccc1.[Br-] [Compound 9]
- fluorescent intensity at pH 4.0 compared with pH 7.4 ([1]; buffer solution containing 50% acetonitrile, pH 4.0 vs 7.4): higher than that at pH 7.4
- shift of maximum fluorescent wavelength to short-wavelength side ([1]; pH 4.0 vs pH 7.4, buffer solution containing 50% acetonitrile): 30 nm
- self-aggregation behaviour ([1]; polar solvent, leads to decrease of fluorescent intensity): tends to form a self-aggregate in a polar solvent
- change of fluorescent intensity responding to pH [2]: increases from a neutral region to an acidic region
- co-staining with Lyso Dye (uptake in lysosomes) [3]: collateral stain took place
- fluorescence from compound and co-staining with lysosome dye [4]: is observed as well as the collateral stain with a lysosome dye (Lyso Dye) is observed
- fluorescence from compound [5]: faint
- increase of fluorescent emission on induction of mitophagy using CCCP [6]: 1.3 times
